Data reported in patent US20250388810A1, “Kit for Sustaining Luminescence of Luminescent Substrate and Method for Sustaining Luminescence of Luminescent Substrate” (SHIMADZU CORPORATION, priority 2024, published 2025).
“Also recorded” adds a separate entry of the source.

Key:
Assay type in all cases: biochemical
[1] = molecular target: T1, NanoLuc (Oplophorus gracilirostris, UniProt Q9GV45, A31E/A60N/A81I/F95D/I117V/K70R/L54V/L99Q/M102K/N193R/P142E/Q151K/Q38R/Q45L/V71I/Y165I); assay: Experiment 2: luminescence reaction of NanoLuc and CTZh in the presence of surfactant and ethanol; details: luminescent enzyme NanoLuc for example 10 nM, CTZh, EtOH
T1 construct: purchased Promega
Method: The experiment was performed in the same manner as in Experiment 1 except that NanoLuc (manufactured by Promega) was used as a luminescent enzyme and NP-40 or CHAPS was used as a surfactant. FIG. 3A is graphs showing a change in luminescence intensity over time. […] FIG. 3B is graphs showing the correlation between the maximum value of the normalized luminescence intensity (vertical axis) and the concentration of the luminescent enzyme and the concentration of the surfactant (horizontal axis). FIG. 3C is graphs showing the correlation between the half-life of the luminescence reaction (horizontal axis) and the concentration of the luminescent enzyme and the concentration of the surfactant (vertical axis).

[2] = tested on: picALuc; assay: Experiment 1: luminescence reaction of picALuc and CTZh in the presence of surfactant and ethanol; details: luminescent enzyme picALuc for example 1 nM, CTZh, EtOH
Method: When a luminescent enzyme and a luminescent substrate were allowed to react in the presence of a surfactant and an alcohol, how the luminescence characteristics of the luminescent substrate change was examined. First, the luminescent enzyme and the surfactant described below were diluted in a buffer (137 mM NaCl, 9.6 mM KH2PO4, 2.7 mM KCl, pH 7.0) to obtain an enzyme solution with different concentrations of the luminescent enzyme and the surfactant.
Also, coelenterazine h (CTZh), which is the luminescent substrate, was dissolved in ethanol (EtOH) so that a final concentration thereof was 2.4 mM, to obtain an ethanol solution of CTZh. […]
Then, 50 μL of the enzyme solution and 50 μL of the substrate solution were mixed. The luminescence value was measured immediately after mixing. […] FIG. 1A is graphs showing a change in luminescence intensity over time. […] FIG. 1B is graphs showing the correlation between the maximum value of the normalized luminescence intensity (vertical axis) and the concentration of the luminescent enzyme and the concentration of the surfactant (horizontal axis). FIG. 1C is graphs showing the correlation between the half-life of the luminescence reaction (horizontal axis) and the concentration of the luminescent enzyme and the concentration of the surfactant (vertical axis). […]

[3] = tested on: picALuc; assay: Experiment 7: inhibition of luminescence reaction by substrate metabolites with or without NP-40; details: metabolite 1 μM; for luminescence value on addition of substrate metabolite: picALuc 100 nM, nCTZ 8 μM, 60 minutes incubation; for suppression of the decreased ratio in the luminescence value by addition of a surfactant: NP-40 (+) versus NP-40 (−)
Method: CTM, CTO, or CTMD was added to a mixture solution having the composition described below so that a final concentration was 0 M or 1 μM, followed by incubation at room temperature for 60 minutes. The luminescence value was then measured. At this time, as the measurement device, a GloMax (registered trademark) Navigator Microplate Luminometer (manufactured by Promega) was used. The time indicating the maximum luminescence value (time from addition of the substrate) varies greatly depending on each condition. Therefore, in this experiment, the luminescence value immediately after the addition of the substrate was compared, rather than the maximum luminescence value, so that the amount of the substrate consumed due to the luminescence reaction and the amount of the substrate oxidation due to elapsed time were not taken into consideration. FIG. 10A is graphs showing the correlation between the relative light unit (vertical axis) and the presence or absence of the surfactant and the substrate metabolites (horizontal axis). FIG. 10B is graphs showing the relationship between the rate of decrease in the amount of luminescence due to the addition of the substrate metabolites (vertical axis) and the presence or absence of the surfactant (horizontal axis).
NP-40 (final concentration 0% or 0.01%) picALuc (final concentration 100 nM) nCTZ (final concentration 8 μM) […]
Buffer (137 mM NaCl, 9.6 mM KH2PO4, 2.7 mM KCl, pH 7.0, remainder)

[4] = tested on: picALuc; assay: Experiment 3: luminescence reaction of picALuc and nCTZ with methanol and NP-40; details: picALuc 100 nM, nCTZ 8 μM, methanol
Method: The experiment was performed in the same manner as in Experiment 1 except that methanol (MeOH) manufactured by FUJIFILM Wako Pure Chemical Corporation) was used as an alcohol, NP-40 was used as a surfactant, and native coelenterazine (nCTZ, final concentration 8 μM) (manufactured by FUJIFILM Wako Pure Chemical Corporation) was used as a luminescent substrate. At this time, the final concentration of the luminescent enzyme (picALuc) was set to 100 nM. FIG. 4 is a graph showing a change in luminescence intensity over time.

[5] = tested on: streptavidin-fused picALuc; assay: Experiment 4: simulated detection system, biotinylated BSA detected with streptavidin-fused picALuc
Method: In this experiment, as a simulated detection system, biotinylated bovine serum albumin (BSA) was immobilized on a base of a 96-well plate and detection was performed using streptavidin-fused picALuc (FIG. 6A). Specifically, 100 μL of a biotinylated BSA solution (final concentration 10 μg/mL) was first added to each well. After each well was washed with a washing buffer (PBST (0.1% Tween)), blocking was performed by addition of 200 μL of a blocking buffer (20% Immnoblock (manufactured by KAC Co., ltd.) in PBS) to each well. After each well was washed with a washing buffer again, 100 μL of a streptavidin-fused picALuc solution (final concentration 1 μg/mL, diluted with 5% Immunoblock in PBST) was added to each well. Each well was washed with a washing buffer.
Then, immediately before the luminescent substrate was added, NP-40 was diluted with a buffer (PBS) so that the final concentration was 0.002 to 0.2%, and 100 μL of the resulting diluted solution was added to each well. Next, 100 μL of the substrate solution prepared in the same manner as in Experiment 1 was added to each well. The luminescence value was measured immediately after the substrate solution was added. At this time, as the measurement device, GloMax (registered trademark) Navigator Microplate Luminometer (manufactured by Promega) was used. FIG. 6B is a graph showing a change in luminescence intensity over time. […] FIG. 6C is a graph showing the correlation between the maximum value of the relative light unit (vertical axis) and the concentration of the surfactant (horizontal axis). FIG. 6D is a graph showing the correlation between the integrated value of the relative light unit (vertical axis) and the concentration of the surfactant (horizontal axis). The integrated value is the integrated value obtained for 30 minutes after the addition of the substrate solution.

[6] = tested on: picALuc; assay: Experiment 8: LC-MS of substrate consumed and substrate metabolites produced in luminescence reaction; details: NP-40 0.01% versus 0%, picALuc 100 nM, nCTZ 8 μM
Method: By LC-MS analysis of a reaction solution containing picALuc and nCTZ, the effect of a surfactant (NP-40) on the amount of the substrate (nCTZ) consumed and the amount of the substrate metabolites (CTM, CTO, CTMD) produced was examined.
A substrate solution (100 μL) having the following composition was added to an enzyme solution (100 μL) having the following composition, to prepare a reaction solution.
At 0 minutes of the luminescence reaction (before the addition of the substrate solution), 10 minutes after the luminescence reaction, or 60 minutes after the luminescence reaction, 1/1000 (volume ratio) of hydrochloric acid was added to the reaction solution to stop the luminescence reaction, and methanol, which was five times the amount of the reaction solution, was added, followed by centrifugation. Then, the supernatant was collected to remove the luminescent enzyme. After that, each reaction solution was analyzed with an LC-MS device to measure the respective amounts of nCTZ, CTM, CTO, and CTMD (FIG. 11). The measurement conditions at this time are as follows.
It was thought that the amount of nCTZ was greater than the actual amount when NP-40 was added due to ion effects. Therefore, it was normalized to the amount of nCTZ when NP-40 was not added. Furthermore, the fact that CTM, CTO, and CTMD were already present in the reaction solution at 0 minutes of luminescence reaction is thought to be caused by converting nCTZ to these compounds during storage of nCTZ. Therefore, the amount of nCTZ consumed and the respective amounts of CTM, CTO, and CTMD produced were calculated by subtracting the amount of each component that was present before the reaction (FIG. 12).

T1 sequence (Q9GV45 other isoform, or with tags, fused parts or gaps with the stated changes): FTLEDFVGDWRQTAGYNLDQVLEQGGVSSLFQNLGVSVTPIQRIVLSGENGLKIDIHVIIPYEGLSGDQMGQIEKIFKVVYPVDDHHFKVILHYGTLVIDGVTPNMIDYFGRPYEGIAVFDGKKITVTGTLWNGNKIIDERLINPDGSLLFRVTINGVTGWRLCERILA

CC(CCC(=O)NCCC[N+](C)(C)CCCS(=O)(=O)O)C1CCC2C3C(O)CC4CC(O)CCC4(C)C3CC(O)C12C (centres unmarked) [CHAPS]
maximum value of the normalized luminescence intensity [1]: enhancement of the luminescence intensity was also observed
maximum value of the normalized luminescence intensity [2]: enhancement of the luminescence intensity was also observed

Nc1ncc(-c2ccc(O)cc2)nc1Cc1ccccc1 [CTM, coelenteramine]
luminescence value on addition of substrate metabolite ([3]; NP-40 (+) 0.01%): a decrease in the luminescence value was clearly observed; also recorded: a decrease in the luminescence value was small
suppression of the decreased ratio in the luminescence value by addition of a surfactant [3]: no significant suppression was observed
luminescence value on addition of substrate metabolite ([3]; NP-40 (−)): the luminescence value significantly decreased

O=C(Cc1ccc(O)cc1)Nc1ncc(-c2ccc(O)cc2)nc1Cc1ccccc1 [CTMD, coelenteramide]
suppression of the decreased ratio in the luminescence value by addition of a surfactant [3]: a tendency to significantly suppress the decreased ratio
luminescence value on addition of substrate metabolite ([3]; NP-40 (−)): the luminescence value significantly decreased

O=c1[nH]cc(-c2ccc(O)cc2)nc1Cc1ccccc1 [CTO, 3-benzyl-5-(4-hydroxyphenyl) pyrazin-2 (1H)-one]
luminescence value on addition of substrate metabolite ([3]; NP-40 (+) 0.01%): a decrease in the luminescence value was small
suppression of the decreased ratio in the luminescence value by addition of a surfactant [3]: a tendency to significantly suppress the decreased ratio
luminescence value on addition of substrate metabolite ([3]; NP-40 (−)): a decrease in the luminescence value was observed

poly(oxyethylene)=octylphenyl ether [NP-40]
maximum value of the normalized luminescence intensity [1]: enhancement of the luminescence intensity was also observed
change in luminescence intensity over time [4]: sustained luminescence and enhancement of the luminescence intensity were observed
maximum value of the relative light unit versus when NP-40 was not added ([5]; 0.1% NP-40): 2.2 times
integrated value of the relative light unit versus when NP-40 was not added ([5]; 0.1% NP-40, integrated for 30 minutes after addition of substrate solution): 3.2 times
maximum value of the relative light unit and sustained luminescence ([5]; NP-40 0.002 to 0.2%): an increase in the maximum value of the relative light unit and the sustained luminescence were observed dependently on the concentration
maximum value of the normalized luminescence intensity [2]: enhancement of the luminescence intensity was also observed
amount of CTM produced when the surfactant was added [6]: decreased
amount of CTMD produced when the surfactant was added [6]: increased
amount of CTO produced when the surfactant was added [6]: remained almost unchanged
amount of nCTZ consumed when the surfactant was added [6]: increased
